This assay addresses canine TRPM8 (Canis lupus familiaris, UniProt Q1A7N1). In words: In Vitro Canine TRPM8 Functional Assay (Ca2+ fluorescence, icilin activation). The format is cell-based. To be noted: for inhibition at 0.5 µM: compound at 0.5 μM, read-out: % Inh @ 0.5; for IC50: HEK293 cells stably expressing canine TRPM8, icilin activation, eight-point dose-response, read-out: IC50. In short, it runs like this:
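Canine TRPM8 stably expressed in HEK293; compound added 5 min before icilin challenge (~80% max response), with fluorescent Ca2+ signal tracked throughout.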

[1] abbreviates: canine TRPM8, icilin activation.
Where [2] appears, read: compound at 0.2 μM, canine TRPM8, icilin activation, read-out: % Inh @ 0.2.

Where two headings read alike, the source gives them in different places.

Drawing on patent publication US9434711B2 (Janssen Pharmaceutica, NV, priority 2007, dated 2016), this text covers inhibition and IC50 for 26 molecules.

Chain of canine TRPM8 (Q1A7N1 1-1104): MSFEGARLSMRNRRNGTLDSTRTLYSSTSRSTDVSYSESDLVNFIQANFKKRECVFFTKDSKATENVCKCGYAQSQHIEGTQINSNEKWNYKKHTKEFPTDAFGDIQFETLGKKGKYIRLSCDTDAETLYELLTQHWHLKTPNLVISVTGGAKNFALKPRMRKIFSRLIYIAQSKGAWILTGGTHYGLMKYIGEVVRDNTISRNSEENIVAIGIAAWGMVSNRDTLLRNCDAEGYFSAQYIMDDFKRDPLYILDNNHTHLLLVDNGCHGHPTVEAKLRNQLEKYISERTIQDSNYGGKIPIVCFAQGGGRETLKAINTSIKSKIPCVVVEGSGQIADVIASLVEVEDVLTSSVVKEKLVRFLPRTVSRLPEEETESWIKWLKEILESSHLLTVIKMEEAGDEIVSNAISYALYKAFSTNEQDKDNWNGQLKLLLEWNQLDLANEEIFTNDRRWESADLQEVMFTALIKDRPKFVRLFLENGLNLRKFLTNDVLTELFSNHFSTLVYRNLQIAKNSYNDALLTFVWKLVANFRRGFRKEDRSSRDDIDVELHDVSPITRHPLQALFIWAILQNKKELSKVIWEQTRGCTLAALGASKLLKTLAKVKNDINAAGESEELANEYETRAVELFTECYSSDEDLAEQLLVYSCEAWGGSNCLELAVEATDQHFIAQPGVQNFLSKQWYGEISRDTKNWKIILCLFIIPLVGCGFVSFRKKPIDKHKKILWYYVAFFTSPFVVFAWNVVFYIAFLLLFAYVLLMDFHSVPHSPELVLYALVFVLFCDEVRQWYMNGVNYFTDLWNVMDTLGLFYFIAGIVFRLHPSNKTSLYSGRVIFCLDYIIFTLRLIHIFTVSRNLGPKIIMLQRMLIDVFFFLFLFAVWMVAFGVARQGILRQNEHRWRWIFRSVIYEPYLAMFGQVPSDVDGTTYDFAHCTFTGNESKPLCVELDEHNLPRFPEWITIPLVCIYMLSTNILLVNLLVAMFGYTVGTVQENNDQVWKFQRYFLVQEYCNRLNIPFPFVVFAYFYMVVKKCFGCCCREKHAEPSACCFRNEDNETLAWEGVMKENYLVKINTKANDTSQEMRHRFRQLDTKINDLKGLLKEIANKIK

On to `O=S(=O)(c1ccccc1)N(C[C@@H](O)CO)c1sc2ccccc2c1Br` [Compound 235, (R)—N-(3-Bromo-benzo[b]thiophen-2-yl)-N-(2,3-dihydroxy-propyl)-benzenesulfonamide], for which, under setting [1], the inhibition at 0.5 µM was determined as 51%.
Consider `O=C1CCCN1CCN(c1sc2ccccc2c1Br)S(=O)(=O)c1ccccc1` [Compound 236, N-(3-Bromo-benzo[b]thiophen-2-yl)-N-[2-(2-oxo-pyrrolidin-1-yl)-ethyl]-benzenesulfonamide], for which, under setting [1], the inhibition at 0.5 µM came out at 68%.
For `O=S(=O)(c1ccccc1)N(CCN1CCOCC1)c1sc2ccccc2c1Br` [Compound 237, N-(3-Bromo-benzo[b]thiophen-2-yl)-N-(2-morpholin-4-yl-ethyl)-benzenesulfonamide], the IC50 was 24.8 nM. Also, the inhibition at 0.2 µM under setting [2] stood at 87%. Besides, the inhibition at 0.5 µM under setting [1] was found to be 92%.
For `CN(C)CCN(c1sc2ccccc2c1Br)S(=O)(=O)c1ccccc1` [Compound 238, N-(3-Bromo-benzo[b]thiophen-2-yl)-N-(2-dimethylamino-ethyl)-benzenesulfonamide], the IC50 stood at 93 nM. Also, the inhibition at 0.5 µM under setting [1] came to 96%.
On to `CS(=O)(=O)CCN(c1sc2ccccc2c1Br)S(=O)(=O)c1ccccc1` [Compound 239, N-(3-Bromo-benzo[b]thiophen-2-yl)-N-(2-methanesulfonyl-ethyl)-benzenesulfonamide], for which the IC50 was found to be 92 nM. Moreover, the inhibition at 0.5 µM under setting [1] turned out to be 96%.
As for `O=C1NCCN1CCN(c1sc2ccccc2c1Br)S(=O)(=O)c1ccccc1` [Compound 240, N-(3-Bromo-benzo[b]thiophen-2-yl)-N-[2-(2-oxo-imidazolidin-1-yl)-ethyl]-benzenesulfonamide], the inhibition at 0.5 µM under setting [1] stood at 43%.
For the molecule `CN1CCC[C@H]1CN(c1sc2ccccc2c1Br)S(=O)(=O)c1ccccc1` [Compound 241, (S)—N-(3-Bromo-benzo[b]thiophen-2-yl)-N-(1-methyl-pyrrolidin-2-ylmethyl)-benzenesulfonamide], the IC50 was 106 nM. Also, the inhibition at 0.5 µM under setting [1] is 97%.
Regarding `O=S(=O)(c1ccccc1)N(CC(F)F)c1sc2ccccc2c1Br` [Compound 242, N-(3-Bromo-benzo[b]thiophen-2-yl)-N-(2,2-difluoro-ethyl)-benzenesulfonamide], the IC50 was found to be 38.2 nM. Besides, under setting [2], the inhibition at 0.2 µM amounted to 95%.
Turning to `COC(=O)CN(c1sc2ccccc2c1Br)S(=O)(=O)c1ccccc1` [Compound 243, N-(3-Bromo-benzo[b]thiophen-2-yl)-N-(carbomethoxymethyl)-benzenesulfonamide], the IC50 is 38 nM. Also, under setting [2], the inhibition at 0.2 µM worked out at 98%.
Take `COC(=O)[C@@H](C)CN(c1sc2ccccc2c1Br)S(=O)(=O)c1ccccc1` [Compound 244, N-(3-Bromo-benzo[b]thiophen-2-yl)-N-[2(S)-methyl-2-carbomethoxy-ethyl]-benzenesulfonamide]: the inhibition at 0.2 µM under setting [2] stood at 100%.
As for `COC(=O)[C@H](C)CN(c1sc2ccccc2c1Br)S(=O)(=O)c1ccccc1` [Compound 245, N-(3-Bromo-benzo[b]thiophen-2-yl)-N-[2(R)-methyl-2-carbomethoxy-ethyl]-benzenesulfonamide], under setting [2], the inhibition at 0.2 µM was found to be 102%.
On to `O=S(=O)(c1ccccc1)N(CCCc1ccccc1)c1sc2ccccc2c1Br` [Compound 246, N-(3-Bromo-benzo[b]thiophen-2-yl)-N-(3-phenyl-propyl)-benzenesulfonamide], for which the IC50 turned out to be 8.8 nM. For the same molecule, the inhibition at 0.2 µM under setting [2] stood at 102%.
The corresponding values for `CCN(c1sc2ccccc2c1Br)S(=O)(=O)c1ccccc1` [Compound 247, N-(3-Bromo-benzo[b]thiophen-2-yl)-N-(ethyl)-benzenesulfonamide] are 25.5 nM and 99%.
For the molecule `CCCCCCN(c1sc2ccccc2c1Br)S(=O)(=O)c1ccccc1` [Compound 248, N-(3-Bromo-benzo[b]thiophen-2-yl)-N-(hexyl)-benzenesulfonamide], the IC50 came to 8.3 nM. Also, the inhibition at 0.2 µM under setting [2] was 98%.
Consider `O=S(=O)(c1ccccc1)N(CC12CC3CC(CC(C3)C1)C2)c1sc2ccccc2c1Br` [Compound 249, N-(Adamant-1-ylmethyl)-N-(3-bromo-benzo[b]thiophen-2-yl)-benzenesulfonamide], for which the IC50 came out at 0.9 nM. The inhibition at 0.2 µM under setting [2] is 97%.
Consider `O=S(=O)(c1ccccc1)N(CCC(F)(F)F)c1sc2ccccc2c1Br` [Compound 250, N-(3-Bromo-benzo[b]thiophen-2-yl)-N-(3,3,3-trifluoro-propyl)-benzenesulfonamide], for which the IC50 amounted to 12.7 nM. For the same molecule, under setting [2], the inhibition at 0.2 µM turned out to be 102%.
For `CC#CCCN(c1sc2ccccc2c1Br)S(=O)(=O)c1ccccc1` [Compound 251, N-(3-Bromo-benzo[b]thiophen-2-yl)-N-(pent-3-ynyl)-benzenesulfonamide], the IC50 was determined as 38.7 nM. Also, the inhibition at 0.2 µM under setting [2] came to 95%.
Take `COCCN(c1sc2ccccc2c1Br)S(=O)(=O)c1ccccc1` [Compound 252, N-(3-Bromo-benzo[b]thiophen-2-yl)-N-(2-methoxy-ethyl)-benzenesulfonamide]: the IC50 was 17.1 nM. Besides, under setting [2], the inhibition at 0.2 µM is 102%.
As to `CC(=O)CCCN(c1sc2ccccc2c1Br)S(=O)(=O)c1ccccc1` [Compound 253, N-(3-Bromo-benzo[b]thiophen-2-yl)-N-(4-oxo-pentyl)-benzenesulfonamide], the IC50 turned out to be 27.3 nM. The inhibition at 0.2 µM under setting [2] turned out to be 101%.
Regarding `COP(=O)(CCN(c1sc2ccccc2c1Br)S(=O)(=O)c1ccccc1)OC` [Compound 254, N-(3-Bromo-benzo[b]thiophen-2-yl)-N-(dimethoxyphosphinoyl-ethyl)-benzenesulfonamide], the IC50 was determined as 125 nM. The inhibition at 0.2 µM (read-out: % Inh @ 0.2 (μM)) was determined as 58%.
For `O=S(=O)(c1ccccc1)N(CC1CC1)c1sc2ccccc2c1Br` [Compound 255, N-(3-Bromo-benzo[b]thiophen-2-yl)-N-(cyclopropylmethyl)-benzenesulfonamide], the IC50 stood at 86 nM. Further, under setting [2], the inhibition at 0.2 µM worked out at 89%.
On to `O=S(=O)(c1ccccc1)N(CCN1CCCCC1)c1sc2ccccc2c1Br` [Compound 256, N-(3-Bromo-benzo[b]thiophen-2-yl)-N-(2-piperidin-1-yl-ethyl)-benzenesulfonamide], for which the IC50 came out at 30 nM. In addition, the inhibition at 0.2 µM under setting [2] came out at 87%.
Turning to `O=C1CCC(=O)N1CCN(c1sc2ccccc2c1Br)S(=O)(=O)c1ccccc1` [Compound 257, N-(3-Bromo-benzo[b]thiophen-2-yl)-N-[2-(2,5-dioxo-pyrrolidin-1-yl)-ethyl]-benzenesulfonamide], the inhibition at 0.2 µM under setting [2] was determined as 62%.
The same measure, in the same setting: the result for `O=C1CC[C@H](CN(c2sc3ccccc3c2Br)S(=O)(=O)c2ccccc2)N1` [Compound 258, (R)—N-(3-Bromo-benzo[b]thiophen-2-yl)-N-(5-oxo-pyrrolidin-2-ylmethyl)-benzenesulfonamide] reads 25%.
As to `O=C1CC[C@@H](CN(c2sc3ccccc3c2Br)S(=O)(=O)c2ccccc2)N1` [Compound 259, (S)—N-(3-Bromo-benzo[b]thiophen-2-yl)-N-(5-oxo-pyrrolidin-2-ylmethyl)-benzenesulfonamide], under setting [2], the inhibition at 0.2 µM is 24%.
For `CSCCN(c1sc2ccccc2c1Br)S(=O)(=O)c1ccccc1` [Compound 260, N-(3-Bromo-benzo[b]thiophen-2-yl)-N-(2-methylsulfanyl-ethyl)-benzenesulfonamide], the IC50 is 50 nM. Also, the inhibition at 0.2 µM under setting [2] is 86%.
